Several values for one entry are separate records, joined by “and”; a condition that tells them apart may be missing. Equal values may be shown once. Entries after “also recorded” stand apart in the source; their conditions may differ.
Tests used:
[1] = in vivo
[2] = test system: Panc1; experiment: Panc1 immunoblotting and Trypan blue staining, alone and with TRAIL; assay type: cell-based
[3] = test system: apoptosis pathway (PARP cleavage, caspase-3/7, cleaved cytokeratin-18); experiment: Phase 1 apoptosis pathway activation markers in patients; assay type: in vivo, human
[4] = test system: primary human melanoma tumor xenograft; experiment: Efficacy in primary human melanoma tumor xenograft models
[5] = test system: advanced solid tumors and lymphoma; experiment: Phase 1 anti-tumor activity in patients with refractory solid tumors or lymphoma; assay type: in vivo, human
[6] = test system: primary pancreatic tumors; settings: mouse, in vivo
Experimental: (§1) An additional 6 primary pancreatic tumors were evaluated at 60 mg/kg.

[7] = test system: primary pancreatic tumors; experiment: Patient-derived primary pancreatic cancer explant model
Experimental: as §1

[8] = mouse, in vivo
[9] = human, in vivo
[10] = mouse, in vivo; remark: listed apart in the source
[11] = test system: MDA-MB-231 xenograft; experiment: Tumor growth inhibition in MDA-MB-231 xenograft; assay type: in vivo, mice
[12] = Phase 1 safety and tolerability in patients; settings: for tolerability: patients
[13] = TL32711 combined with carboplatin and paclitaxel
[14] = CRC Patient 01-202, dose cohort 0.36 mg/m^2
[15] = CRC Patient 01-801, dose cohort 17.2 mg/m^2
[16] = Melanoma Patient 01-703, dose cohort 11.5 mg/m^2
[17] = 60 mg/kg i.p. twice weekly, 28 days
[18] = patients with solid tumors and lymphoma

CC[C@H](NC(=O)[C@H](C)NC)C(=O)N1C[C@@H](O)C[C@H]1Cc1c(-c2[nH]c3cc(F)ccc3c2C[C@@H]2C[C@H](O)CN2C(=O)[C@H](CC)NC(=O)[C@H](C)NC)[nH]c2cc(F)ccc12 [TL32711, N-{1S-[2R-(6,6′-Difluoro-3′-{4S-hydroxy-1-[2S-(2S-methylamino-propionylamino)-butyryl]-pyrrolidin-2R-ylmethyl}-1H,1′H-[2,2′]biindolyl-3-ylmethyl)-4S-hydroxy-pyrrolidine-1-carbonyl]-propyl}-2S-methylamino-propionamide]
half-life in the patient ([1]; human): long half-life | inter-patient variability in Cmax and AUC ([1]; human): moderate to low | retention (half-life) in tumor tissues ([1]; human): 49 h | t1/2 in PBMCs ([1]; human): 29 to 35 h | terminal half-life in plasma ([1]; human): 35 h | terminal half-life in tumor tissue ([1]; human): 52 h | plasma terminal t½ ([1]; human, iv): 73 to 79 h | estimated tumor exposure in patients versus primary human tumor xenograft models in mice [1]: in excess of the measured drug levels | pro-apoptotic effect ([2]; Panc1, TL32711 alone): dose-dependent pro-apoptotic effect | pro-apoptotic effect with TRAIL co-incubation ([2]; Panc1, TL32711 with TRAIL): synergized | cIAP1 degradation and caspase-3 activation ([2]; Panc1, immunoblotting): rapid cIAP1 degradation leading to caspase-3 activation | PBMC PARD cleavage and plasma caspase-3 activity [3]: dose related increase | activated serum caspase-3/7 and cleaved cytokeratin-18 levels [3]: dose-related | anti-tumor activity of biweekly versus weekly dosing schedule ([4]; 15 mg/kg twice/week versus 30 mg/kg once/week, primary melanoma model): did not result in enhanced anti-tumor activity | models with tumor regressions [4, 13]: 4 of the 6 | reduction in bodyweight (tolerability) [4, 13]: < 14% | primary melanoma tumor xenografts with significant tumor growth inhibition ([4]; single agent TL32711, 30 mg/kg IP): 5 of 6 and 5/6 | cycles received before disease progression [5, 14]: Patient received 6 cycles (24 weeks) of TL32711 before disease | metastatic lesions decreased on CT scan after 2 cycles [5, 14]: CT scan; 3 of 5 metastatic lesions decreased after 2 cycles of | response by RECIST criteria after 2 cycles [5, 14]: TL32711 - Stable Disease by RECIST criteria | clinical improvement during first 2 cycles [5, 15]: Patient had marked clinical improvement of early satiety and pain | disease progression after 2 cycles [5, 15]: Patient progressed with development of a new liver lesion after | patient's CEA after 1 cycle [5, 15]: decreased (150 to 90) | photopenic lesion developed in a hepatic metastasis after 1 cycle [5, 15]: 4-5 cm | disease progression [5, 16]: Progressed after 3rd cycle with increasing cutaneous lesions | response by RECIST criteria after 2 cycles [5, 16]: Stable Disease by RECIST criteria after 2 cycles of TL32711 | anti-tumor activity in patients (overall) ([5]; Phase 1 patients): promising early signs of anti-tumor activity; also recorded: Evidence of anti-tumor activity observed | relation of efficacy to tumor drug exposure [6]: efficacy correlated with tumor drug exposure | growth inhibition in primary tumor #17624 ([7]; 30 mg/kg i.p. twice weekly): significant growth inhibition | significant growth inhibition in primary tumor #12872 ([7]; 30 mg/kg i.p. twice weekly): not | T/C in the 2 primary tumors with suboptimal growth inhibition [7, 17]: ~0.4 | T/C in the 6 primary tumors with significant growth arrest/inhibition [7, 17]: −0.1 to 0.2 | toxicity in the tumor-bearing mice ([7]; all dose levels (30, 45, 60 mg/kg i.p. twice weekly)): No significant toxicity | dose achieving significant growth inhibition in both #17624 and #12872 ([7]; i.p. twice weekly, dose escalation): >= 45 mg/kg | TL32711 tumor half-life after increase in exposure [8]: 166 h | TL32711 tumor half-life before increase in exposure [8]: 56 h | increase in tumor exposure for a 4-fold increase in dose [8]: 14 fold | Fever, Number of Grade 1 or 2 Events (%) [9]: 4 (11%) | Grade 3 or Grade 4 Adverse Events attributed to study drug [9]: No Grade 3 or Grade 4 Adverse Events attributed to study drug | Lymphocytopenia, Number of Grade 1 or 2 Events (%) [9]: 2 (6%) | Nausea, Number of Grade 1 or 2 Events (%) [9]: 5 (14%) | Rash, Number of Grade 1 or 2 Events (%) [9]: 3 (8%) | half-life in plasma [10]: 20 h | half-life in tumor [10]: 96 h | cIAP1 inhibition in tumors throughout the dosing interval at which significant tumor growth delay and regressions were observed ([11]; mice bearing MDA-MB-231 xenograft): > 75% | doses causing significant tumor growth inhibition and regressions ([11]; q3D, MDA-MB-231 xenograft): ≥ 2.5 mg/kg | tolerability [12]: well tolerated | dose-limiting toxicities [12, 18]: no dose-limiting toxicities | maximum tolerated dose (MTD) [12, 18]: has not been reached | tolerability ([12]; listed as Compound 15): unexpectedly well tolerated | tolerability at 63 mg/m^2 ([12]; two patients, 63 mg/m^2 weekly, 3 weeks on/1 week off): not well tolerated
